Tests used:
Oryctolagus sp. = conditions: reproduction developmental; duration: 13 days; oral; F; New Zealand
Rattus norvegicus = conditions: short-term, duration: 28 days, oral, gavage, Sprague-Dawley

O=C(O)C(F)(F)C(F)(F)C(F)(F)C(F)(F)C(F)(F)C(F)(F)C(F)(F)F [Perfluorooctanoic acid]
NOAEL (Oryctolagus sp.): 50 mg/kg-day | LOEL (Rattus norvegicus; F, Clinical chemistry_Alanine aminotransferase): 50 mg/kg-day | LOEL (Rattus norvegicus; F, Clinical chemistry_Albumin): 25 mg/kg-day | LOEL (Rattus norvegicus; F, Clinical chemistry_Albumin/globulin ratio): 12.5 mg/kg-day | LOEL (Rattus norvegicus; F, Clinical chemistry_Alkaline phosphatase): 6.25 mg/kg-day | NOEL (Rattus norvegicus; F, Clinical chemistry_Aspartate aminotransferase): 100 mg/kg-day | LOEL (Rattus norvegicus; F, Clinical chemistry_Cholesterol): 50 mg/kg-day | NOEL (Rattus norvegicus; F, Clinical chemistry_Creatinine kinase): 100 mg/kg-day | NOEL (Rattus norvegicus; F, Clinical chemistry_Direct bilirubin): 100 mg/kg-day | LOEL (Rattus norvegicus; F, Clinical chemistry_Free thyroxine): 100 mg/kg-day | LOEL (Rattus norvegicus; F, Clinical chemistry_Globulin): 12.5 mg/kg-day | NOEL (Rattus norvegicus; F, Clinical chemistry_Indirect bilirubin): 100 mg/kg-day | NOEL (Rattus norvegicus; F, Clinical chemistry_Sorbitol dehydrogenase): 100 mg/kg-day | NOEL (Rattus norvegicus; F, Clinical chemistry_Testosterone): 100 mg/kg-day | LOEL (Rattus norvegicus; F, Clinical chemistry_Thyroid stimulating hormone): 6.25 mg/kg-day | NOEL (Rattus norvegicus; F, Clinical chemistry_Total bile acids): 100 mg/kg-day | NOEL (Rattus norvegicus; F, Clinical chemistry_Total bilirubin): 100 mg/kg-day | NOEL (Rattus norvegicus; F, Clinical chemistry_Total protein): 100 mg/kg-day | LOEL (Rattus norvegicus; F, Clinical chemistry_Total thyroxine): 100 mg/kg-day | NOEL (Rattus norvegicus; F, Clinical chemistry_Total triiodothyronine): 100 mg/kg-day | LOEL (Rattus norvegicus; F, Clinical chemistry_Triglycerides): 50 mg/kg-day | LOEL (Rattus norvegicus; F, Gene expression_Acox1): 12.5 mg/kg-day | LOEL (Rattus norvegicus; F, Gene expression_Cyp2b1): 6.25 mg/kg-day | LOEL (Rattus norvegicus; F, Gene expression_Cyp2b2): 6.25 mg/kg-day | LOEL (Rattus norvegicus; F, Gene expression_Cyp4a1): 25 mg/kg-day | LOEL (Rattus norvegicus; F, Hematology_Erythrocytes): 12.5 mg/kg-day | LOEL (Rattus norvegicus; F, Hematology_Hematocrit): 12.5 mg/kg-day | LOEL (Rattus norvegicus; F, Hematology_Hemoglobin): 12.5 mg/kg-day | NOEL (Rattus norvegicus; F, Hematology_Mean corpuscular hemoglobin concentration): 100 mg/kg-day | NOEL (Rattus norvegicus; F, Hematology_Mean corpuscular volume): 100 mg/kg-day | NOEL (Rattus norvegicus; F, Hematology_Platelets): 100 mg/kg-day | NOEL (Rattus norvegicus; F, Hematology_Reticulocytes): 100 mg/kg-day | NOEL (Rattus norvegicus; F, Nonneoplastic effects_Bone marrow - Hypocellularity): 100 mg/kg-day | NOEL (Rattus norvegicus; F, Nonneoplastic effects_Forestomach - Epithelium, hyperplasia): 100 mg/kg-day | NOEL (Rattus norvegicus; F, Nonneoplastic effects_Forestomach - Inflammation, chronic active): 100 mg/kg-day | NOEL (Rattus norvegicus; F, Nonneoplastic effects_Kidney - Nephropathy, chronic progressive): 100 mg/kg-day | NOEL (Rattus norvegicus; F, Nonneoplastic effects_Liver - Hepatocyte, Necrosis): 100 mg/kg-day | LOEL (Rattus norvegicus; F, Nonneoplastic effects_Liver - Hepatocyte, cytoplasmic alteration): 25 mg/kg-day | LOEL (Rattus norvegicus; F, Nonneoplastic effects_Liver - Hepatocyte, hypertrophy): 100 mg/kg-day | NOEL (Rattus norvegicus; F, Nonneoplastic effects_Liver - Hepatocyte, vacuolization cytoplasmic): 100 mg/kg-day | NOEL (Rattus norvegicus; F, Nonneoplastic effects_Lymph nodes - Mandibular, atrophy): 100 mg/kg-day | NOEL (Rattus norvegicus; F, Nonneoplastic effects_Lymph nodes - Mesenteric, atrophy): 100 mg/kg-day | LOEL (Rattus norvegicus; F, Nonneoplastic effects_Nose - Olfactory epithelium, degeneration): 50 mg/kg-day | LOEL (Rattus norvegicus; F, Nonneoplastic effects_Nose - Olfactory epithelium, hyperplasia): 50 mg/kg-day | LOEL (Rattus norvegicus; F, Nonneoplastic effects_Nose - Olfactory epithelium, inflammation, suppurative): 100 mg/kg-day | LOEL (Rattus norvegicus; F, Nonneoplastic effects_Nose - Respiratory epithelium, hyperplasia): 12.5 mg/kg-day | LOEL (Rattus norvegicus; F, Nonneoplastic effects_Nose - Respiratory epithelium, inflammation, chronic active): 12.5 mg/kg-day | NOEL (Rattus norvegicus; F, Nonneoplastic effects_Spleen - Atrophy): 100 mg/kg-day | NOEL (Rattus norvegicus; F, Nonneoplastic effects_Spleen - Extramedullary hematopoiesis, increased): 100 mg/kg-day | NOEL (Rattus norvegicus; F, Nonneoplastic effects_Thymus - Atrophy): 100 mg/kg-day | NOEL (Rattus norvegicus; F, Nonneoplastic effects_Thymus - Lymphocyte, apoptosis): 100 mg/kg-day | LOEL (Rattus norvegicus; F, Nonneoplastic effects_Thyroid gland - Follicular cell hypertrophy): 100 mg/kg-day | LOEL (Rattus norvegicus; F, Organ weights_Liver - Absolute): 25 mg/kg-day | LOEL (Rattus norvegicus; F, Organ weights_Liver - Relative): 25 mg/kg-day | NOEL (Rattus norvegicus; F, Organ weights_R. adrenal gland - Absolute): 100 mg/kg-day | NOEL (Rattus norvegicus; F, Organ weights_R. adrenal gland - Relative): 100 mg/kg-day | LOEL (Rattus norvegicus; F, Organ weights_R. kidney - Absolute): 100 mg/kg-day | LOEL (Rattus norvegicus; F, Organ weights_R. kidney - Relative): 50 mg/kg-day | NOEL (Rattus norvegicus; F, Organ weights_Spleen - Absolute): 100 mg/kg-day | NOEL (Rattus norvegicus; F, Organ weights_Spleen - Relative): 100 mg/kg-day | NOEL (Rattus norvegicus; F, Organ weights_Thymus - Absolute): 100 mg/kg-day | NOEL (Rattus norvegicus; F, Organ weights_Thymus - Relative): 100 mg/kg-day | NOEL (Rattus norvegicus; F, Organ weights_Thyroid gland - Absolute): 100 mg/kg-day | NOEL (Rattus norvegicus; F, Organ weights_Thyroid gland - Relative): 100 mg/kg-day | LOEL (Rattus norvegicus; F, Reproductive toxicity_Altered estrous cyclicity): 100 mg/kg-day | NOEL (Rattus norvegicus; F, Survival rates): 100 mg/kg-day | NOEL (Rattus norvegicus; F, body weight): 100 mg/kg-day | LOEL (Rattus norvegicus; M, Clinical chemistry_Alanine aminotransferase): 0.625 mg/kg-day | NOEL (Rattus norvegicus; M, Clinical chemistry_Albumin): 10 mg/kg-day | LOEL (Rattus norvegicus; M, Clinical chemistry_Albumin/globulin ratio): 0.625 mg/kg-day

From EPA's ToxValDB 9.5
